Data as given in patent US4950591A, “Membrane Na^+ channel protein and related therapeutic compounds” (priority 1987, dated 1990).
pIC50: −log10 of the molar value.

How the values were obtained:
[1] = molecular target: T1, purified Na^+ channel protein (Bos taurus, UniProt A5D7U4+F1MJW3+P55270); assay: Amiloride inhibition of purified reconstituted channel; format: biochemical, bovine
T1 construct: purifying a membrane protein from bovine kidney cortex and bovine trachea epithelia apical membranes; from tissue
T1 sequence (P55270 1-650): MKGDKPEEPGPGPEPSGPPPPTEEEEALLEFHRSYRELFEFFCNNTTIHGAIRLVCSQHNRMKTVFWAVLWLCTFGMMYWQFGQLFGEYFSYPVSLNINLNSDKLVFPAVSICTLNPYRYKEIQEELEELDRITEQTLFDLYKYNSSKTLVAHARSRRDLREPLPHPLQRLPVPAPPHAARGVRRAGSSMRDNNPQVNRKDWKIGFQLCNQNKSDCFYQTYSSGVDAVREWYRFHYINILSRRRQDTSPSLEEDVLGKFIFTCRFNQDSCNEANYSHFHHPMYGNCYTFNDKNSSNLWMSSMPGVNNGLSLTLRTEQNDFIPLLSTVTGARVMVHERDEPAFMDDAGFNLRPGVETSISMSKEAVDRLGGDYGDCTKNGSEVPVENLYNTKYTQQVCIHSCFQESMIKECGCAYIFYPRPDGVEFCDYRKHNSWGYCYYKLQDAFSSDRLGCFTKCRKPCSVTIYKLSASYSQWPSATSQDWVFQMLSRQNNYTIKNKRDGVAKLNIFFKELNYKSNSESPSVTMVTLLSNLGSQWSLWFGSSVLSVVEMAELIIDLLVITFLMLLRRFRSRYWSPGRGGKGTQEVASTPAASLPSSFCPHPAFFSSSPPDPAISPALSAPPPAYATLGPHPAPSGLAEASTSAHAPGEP
T1 sequence (A5D7U4 1-641): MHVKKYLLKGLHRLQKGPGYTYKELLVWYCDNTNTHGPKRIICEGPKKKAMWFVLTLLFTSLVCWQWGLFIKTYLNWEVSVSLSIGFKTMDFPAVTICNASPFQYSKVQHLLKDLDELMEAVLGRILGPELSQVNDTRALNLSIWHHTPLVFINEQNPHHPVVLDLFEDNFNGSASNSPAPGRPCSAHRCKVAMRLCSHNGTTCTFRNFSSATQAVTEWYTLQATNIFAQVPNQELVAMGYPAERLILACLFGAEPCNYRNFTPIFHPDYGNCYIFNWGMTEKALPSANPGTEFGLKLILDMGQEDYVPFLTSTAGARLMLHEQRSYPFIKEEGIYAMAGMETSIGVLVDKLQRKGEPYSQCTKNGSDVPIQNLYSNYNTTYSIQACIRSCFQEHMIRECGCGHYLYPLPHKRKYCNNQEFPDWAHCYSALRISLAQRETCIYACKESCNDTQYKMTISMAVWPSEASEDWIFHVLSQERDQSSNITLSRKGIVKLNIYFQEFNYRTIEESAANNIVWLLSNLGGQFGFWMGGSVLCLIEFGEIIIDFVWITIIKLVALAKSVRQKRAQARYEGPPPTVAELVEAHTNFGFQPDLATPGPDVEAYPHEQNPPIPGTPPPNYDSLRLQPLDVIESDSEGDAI
T1 sequence (F1MJW3 1-652): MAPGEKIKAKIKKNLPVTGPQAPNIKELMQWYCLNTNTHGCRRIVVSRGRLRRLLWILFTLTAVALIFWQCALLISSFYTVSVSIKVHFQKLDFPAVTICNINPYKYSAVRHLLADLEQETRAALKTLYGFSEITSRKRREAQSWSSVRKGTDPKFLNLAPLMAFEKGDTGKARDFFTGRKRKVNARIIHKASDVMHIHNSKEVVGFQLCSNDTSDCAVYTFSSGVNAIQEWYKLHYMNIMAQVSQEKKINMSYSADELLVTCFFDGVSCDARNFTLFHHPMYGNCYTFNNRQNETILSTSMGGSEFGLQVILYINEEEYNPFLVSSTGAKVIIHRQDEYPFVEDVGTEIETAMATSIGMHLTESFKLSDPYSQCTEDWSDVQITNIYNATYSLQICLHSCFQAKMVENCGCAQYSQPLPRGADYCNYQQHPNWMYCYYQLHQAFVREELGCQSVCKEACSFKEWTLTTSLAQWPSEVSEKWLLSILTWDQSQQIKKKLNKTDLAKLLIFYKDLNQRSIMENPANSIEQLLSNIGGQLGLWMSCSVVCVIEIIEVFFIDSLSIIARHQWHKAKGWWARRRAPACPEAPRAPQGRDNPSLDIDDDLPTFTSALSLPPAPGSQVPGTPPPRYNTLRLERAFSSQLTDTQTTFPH
Protocol: By way of illustrative example, bovine kidney cortex cell membranes or bovine trachea apical cell membranes are collected and pooled until the pooled membranes contain about 100 mg of protein as determined by the Lowry method. The pooled membranes in 100 mM HEPES, pH 7.4, are centrifuged at 40,000 g for 30 minutes. The pelleted material was resuspended in 100 mM HEPES, pH 7.4, containing 3% sodium cholate (4.5-5.5 mg of membrane protein/3 ml of solution) containing in addition bacitracin (100 microgram/g), phenylmethylsulfonyl fluoride (0.5%) and iodoacetamide (1 mM). The mixture is chilled on ice for 60 minutes with occasional agitation, then centrifuged at 40,000 g for 30 minutes. The supernatant, containing the solubilized protein, may be purified immediately or frozen at -70° for later purification.
The solubilized protein preparation obtained from about 10 g of cell membrane is purified using 100 ml of the affinity gel described in Example 2. The protein solution and gel are stirred overnight in the cold. The gel is washed with 20 volumes of HEPES solution, pH 7.2, by filtration. The adsorbed protein is eluted with 10^-3 M amiloride in dilute saline containing 0.5% cholate by stirring for two hours. The elution was repeated and the combined eluates are dialyzed against 100 mM HEPES/1% sodium cholate for one week in the cold, changing buffers once or twice a day. […]

[2] = molecular target: T2, Na^+ channel in crude membrane preparation (trachea epithelial) (Bos taurus, UniProt A5D7U4+F1MJW3+P55270); assay: Amiloride inhibition of crude membrane preparation; format: biochemical, bovine
T2 construct: results for both the purified reconstituted channel protein and for the crude membrane preparation; from tissue; host or cells: trachea epithelial membranes, crude preparation (bovine)
T2 sequence (P55270 1-650): T1 sequence (P55270 1-650)
T2 sequence (A5D7U4 1-641): T1 sequence (A5D7U4 1-641)
T2 sequence (F1MJW3 1-652): T1 sequence (F1MJW3 1-652)

N=C(N)NC(=O)c1nc(Cl)c(N)nc1N [amiloride, 3,5-diamino-N-(aminoiminomethyl)-6-chloropyrazinecarboxamide]
pIC50 ([1]; Amiloride, IC50 (micromolar), PURIFIED, Table I, trachea epithelial, purified reconstituted channel protein): 7.15 | pIC50 ([1]; IC50 (amiloride sensitivity of purified channel), purified channel): ~7.15 | pIC50 [2]: 7.00
